Data set [1] relates to PAM cells. To be noted: pig.
Data set [2] relates to ASFV fluorescent virus. The data set is classed as cell-based, African swine fever virus (ASFV).
Data set [3] relates to ASFV fluorescent virus. Description: microbe, parasite or virus in culture. Type of data set: cell-based, African swine fever virus (ASFV).
Data set [4] deals with D1133L RNA of ASFV. Type of data set: cell-based.
Data set [5] has as its system D1133L protein of ASFV. Type of data set: cell-based.
Data set [6] concerns p30 protein of ASFV. The data set is classed as cell-based, African swine fever virus (ASFV).
In data set [7] the test system is p72 protein of ASFV. Type of data set: cell-based, African swine fever virus (ASFV).
Data set [8] concerns ASFV fluorescent virus. The data set is classed as cell-based, African swine fever virus (ASFV). This is another data set of the same source.

“Also recorded” adds a separate entry of the source. A value given as a limit tells only on which side of the number the result lay.

Regarding `C[C@@H](O[C@H]1OCCN(Cc2n[nH]c(=O)[nH]2)[C@H]1c1ccc(F)cc1)c1cc(C(F)(F)F)cc(C(F)(F)F)c1` [aprepitant, 5-[2(R)-[1(R)-[3,5-bis(trifluoromethyl)phenyl]ethoxy]-3(S)-(4-fluorophenyl)morpholino-4-ylmethyl]-3,4-dihydro-2H-1,2,4-triazol-3-one], the cell viability result in data set [1] is given as “more than 50%”. In data set [2], the “fluorescence of ASFV fluorescent virus in infected cells” value is given as “gradually becomes darker; also recorded: completely disappears”. Moreover, the “ASFV genome copy number” value in data set [3] is “reduced”. Further, the inhibition (as a rule, the change of the read-out against control, counted positive when it falls) at 22 µM in data set [3] (African swine fever virus, 48 h, read-out: inhibition of ASFV genome copy number) was above 50%. Also, the “inhibition rate of D1133L RNA expression level” value in data set [4] is reported as “higher than 50%”. In addition, in data set [5], the “expression level of D1133L protein” value was “significantly decreased”. For the same compound, the “expression level of p30 protein” value in data set [6] is on record as “significantly decreased”. Also, the “expression level of p72 protein” value in data set [7] is recorded as “significantly decreased”. Besides, in data set [8], the “TCID50 of ASFV fluorescent virus” value is “reduce the TCID50; also recorded: minimum”.

The values above are taken from US11883411B2 (priority 2022, dated 2024).
